According to patent US20210179680A1, “POLYPEPTIDE, DERIVATIVES THEREOF, AND APPLICATION THEREOF IN PREPARATION OF DRUGS HAVING RESISTANCE TO PULMONARY FIBROSIS” (priority 2016, published 2021):
Bridge positions count the residues as written; N and C are the ends. Square brackets hold non-standard residues; d marks the D form. Peptide text beside a SMILES is read from it. S5 = C=CCCC[C@](C)(N)C(=O)O

Tests used:
[1] = tested on: mice with bleomycin-induced pulmonary fibrosis; assay: Lung weight index in mice with pulmonary fibrosis; format: in vivo, C57BL/6 mice; settings: 2 mg/kg i.p., after 28 days, lung weight (mg) divided by body weight (g)
Procedure: (§1) Male C57BL/6 mice were fasted overnight, then anesthetized with 45 mg/kg sodium pentobarbital by injection intraperitoneally (i.p.), and intratracheally injected with bleomycin at a dose of 3 U/kg. The specific operation steps are as follows: cut the neck skin of the mouse with as little trauma as possible, expose the trachea with the assistance of elbow ophthalmic forceps, puncture the trachea and inject about 50 μL of bleomycin into the trachea with a microsyringe, rotate the mouse quickly and stand it upright for 5 minutes in order to make bleomycin evenly enter the left and right lobe, thereby constructing an animal model. The whole operation was performed at a surgical table at about […]. Mice in the sham operation group were intratracheally injected with an equal amount of physiological saline for injection.
Pulmonary fibrosis model was prepared according to the method described in Example 2, and administered in groups according to Table 3. After 28 days, the lungs of the mice were finely stripped and weighed, and a lung weight index was obtained from dividing the lung weight (mg) by the body weight (g) of the mice. […] In FIG. 7, “##” represents that P value is less than 0.01 when the lung weight index of administration group was compared with that of the sham operation group; “*” represents that P value is less than 0.05 when the lung weight index of administration group was compared with that of the bleomycin group; “**” represents that P value is less than 0.01 when the lung weight index of administration group was compared with that of bleomycin group.
Pulmonary fibrosis models were made according to the method described in Example 2 and administered in groups according to Table 9. After 28 days, the lungs of the mice were finely stripped and weighed, and the lung weight (mg) was divided by the body weight (g) of the mice to obtain a lung weight index. […] In FIG. 13, “##” represents that P value is less than 0.01 when the lung weight index of the administration groups were compared with that of the sham operation group; “*” represents that P value is less than 0.05 and “**” represents that P value is less than 0.01 when the lung weight index of the administration groups were compared with bleomycin group.

TRB3 protein = target: T1, TRB3 protein (Homo sapiens, UniProt Q96RU7); assay: Surface plasmon resonance (Biacore T200) binding of polypeptides to TRB3 protein; settings: SPR, FIG. 4-1, 4-2 and Table 1
T1 construct: purchased RD
T1 sequence (Q96RU7 1-358): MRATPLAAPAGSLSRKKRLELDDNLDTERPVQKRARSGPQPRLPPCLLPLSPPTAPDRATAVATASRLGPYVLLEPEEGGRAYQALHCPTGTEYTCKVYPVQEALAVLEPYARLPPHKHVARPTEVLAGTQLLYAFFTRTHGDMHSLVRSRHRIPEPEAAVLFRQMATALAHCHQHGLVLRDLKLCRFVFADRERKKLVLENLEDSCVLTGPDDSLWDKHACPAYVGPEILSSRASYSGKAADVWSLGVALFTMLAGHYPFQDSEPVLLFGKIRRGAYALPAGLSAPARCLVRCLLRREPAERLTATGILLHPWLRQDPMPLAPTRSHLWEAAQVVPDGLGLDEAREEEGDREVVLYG
Procedure: The surface plasmon resonance experiment was carried out in a surface plasmon resonator Biacore T200, and the procedure was carried out in accordance with the instructions of the plasma resonator Biacore T200. Specific steps are as follows:
1. Purified TRB3 protein (purchased from RD) was coupled to a CMS chip (purchased from GE) by amidogen, and the unbound protein was eluted at a flow rate of 10 μL/min. The surface of the chip was equilibrated for 2 hours. Among them, the specific steps of amidogen coupling, elution and equilibration refer to the relevant instruction of GE's CMS chip.
2. 250 μL of the S1-S11 and MR2 polypeptide fragments prepared in Example 1 with different concentrations (800, 400, 200, 50, 12.5, 6.25, and 3.125 nM) were automatically injected, and the entire surface plasmon resonance experiment was carried out at 25° C. The buffer used was HBS-EP buffer [0.01 M HEPES, 0.15 M NaCl, 3 mM EDTA and 0.005% (w/w) surfactant TWEEN20]. Biacore T200's built-in analysis software was used to simulate the binding curves of different concentrations of peptides to TRB3.

[2] = tested on: mice with bleomycin-induced pulmonary fibrosis; assay: Survival rate of mice with bleomycin-induced pulmonary fibrosis; format: in vivo, C57BL/6 mice; settings: twice a week
Procedure: as §1
The animal model with pulmonary fibrosis was prepared according to the method described in Example 2. The peptide therapy was started from the 10th day after modeling (the treatment groups are shown in Table 3), and the time was calculated from the 10th day after modeling to count the mortality rate. The death situation of each group of experimental animals was counted and calculated daily. […] The survival rate is the percentage of the number of mice that survived accounting for the number of mice in the whole group. Results are shown in FIG. 6-1, FIG. 6-2 and Table 4. […] In FIG. 6-1 and FIG. 6-2, “##” represents that P value is less than 0.01 when the survival rate of administration group was compared with that of the sham operation group; “*” represents that P value is less than 0.05 when the survival rate of administration group was compared with that of the bleomycin group; “**” represents that P value is less than 0.01 when the survival rate of administration group was compared with that of bleomycin group; and “i.p.” refers to intraperitoneal injection.
The animal model of pulmonary fibrosis was prepared according to the method described in Example 2. The polypeptide treatment was started from the 10th day after modeling (the treatment groups are shown in Table 9), and the time was calculated from the 10th day after modeling to count the mortality rate. The mortality rate of each group of experimental animals was recorded and calculated daily. If none of the animals in a group died, the survival rate of the group is 100%. If all the animals in a group died, the survival rate is 0%. […] In FIG. 12, “##” represents that P value is less than 0.01 when the survival rate of the administration groups were compared with that of the sham operation group; “*” represents that P value is less than 0.05 and “**” represents that P value is less than 0.01 when the survival rate of the administration groups were compared with bleomycin group.

[3] = Table 3 groups: 2 mg/kg i.p., 10th to 28th day after modeling
[4] = Table 9 groups (S19-S21): 2 mg/kg i.p., 10th to 28th day after modeling
[5] = Table 9 groups (S19-S21): 2 mg/kg i.p.

Molecule	Lung weight index ([1]; Table 3 groups)	interaction with the TRB3 protein (in words) (TRB3 protein)	Survival rate (%) 7 days [2, 3]	Survival rate (%) 14 days [2, 3]	Survival rate (%) 21 days [2, 3]	Survival rate (%) 28 days [2, 3]	Lung weight index ([1]; Table 9 groups)	Survival rate (%) 7 days [2, 4]	Survival rate (%) 14 days [2, 5]	Survival rate (%) 21 days [2, 5]	Survival rate (%) 28 days [2, 5]
CSCC[C@H](NC(=O)[C@H](CC(C)C)NC(=O)[C@@H](N)Cc1c[nH]cn1)C(=O)N[C@@H](C)C(=O)N[C@@H](CS)C(=O)N[C@@H](Cc1ccccc1)C(=O)N[C@H](C(=O)N[C@@H](CS)C(=O)N[C@@H](C)C(=O)N[C@@H](CCCCN)C(=O)N[C@@H](CCCCN)C(=O)N[C@@H](CC(C)C)C(=O)N[C@@H](CCCCN)C(=O)N[C@@H](CCCCN)C(=O)N[C@@H](CCCNC(=N)N)C(=O)O)[C@@H](C)O [MR2] (H-HLMACFTCAKKLKKR-OH; N-terminus and C-terminus assumed)	11.4625	interacted with the TRB3 protein	100%	93.33%	73.33%	66.67%					
CSCC[C@@H]1NC(=O)[C@H](CC(C)C)NC(=O)[C@@](C)(N)CCCC=CCCC[C@@](C)(C(=O)N[C@@H](Cc2ccccc2)C(=O)N[C@H](C(=O)N[C@@H](CS)C(=O)N[C@@H](C)C(=O)N[C@@H](CCCCN)C(=O)N[C@@H](CCCCN)C(=O)N[C@@H](CC(C)C)C(=O)N[C@@H](CCCCN)C(=O)N[C@@H](CCCCN)C(=O)N[C@@H](CCCNC(=N)N)C(=O)O)[C@@H](C)O)NC(=O)[C@H](C)NC1=O [S1, S5-Leu-Met-Ala-S5-Phe-Thr-Cys-Ala-Lys-Lys-Leu-Lys-Lys-Arg] (H-[S5]LMA[S5]FTCAKKLKKR-OH; staple 1-5; N-terminus and C-terminus assumed)	8.675	interacted with the TRB3 protein	100%	86.67%	80%	80%					
CSCC[C@@H]1NC(=O)[C@@](C)(NC(=O)[C@@H](N)Cc2c[nH]cn2)CCCC=CCCC[C@@](C)(C(=O)N[C@H](C(=O)N[C@@H](CS)C(=O)N[C@@H](C)C(=O)N[C@@H](CCCCN)C(=O)N[C@@H](CCCCN)C(=O)N[C@@H](CC(C)C)C(=O)N[C@@H](CCCCN)C(=O)N[C@@H](CCCCN)C(=O)N[C@@H](CCCNC(=N)N)C(=O)O)[C@@H](C)O)NC(=O)[C@H](CS)NC(=O)[C@H](C)NC1=O [S2, His-S5-Met-Ala-Cys-S5-Thr-Cys-Ala-Lys-Lys-Leu-Lys-Lys-Arg] (H-H[S5]MAC[S5]TCAKKLKKR-OH; staple 2-6; N-terminus and C-terminus assumed)	9.35	interacted with the TRB3 protein	100%	100%	80%	80%					
CC(C)C[C@H](NC(=O)[C@H](CCCCN)NC(=O)[C@H](CCCCN)NC(=O)[C@H](C)NC(=O)[C@H](CS)NC(=O)[C@]1(C)CCCC=CCCC[C@](C)(NC(=O)[C@H](CC(C)C)NC(=O)[C@@H](N)Cc2c[nH]cn2)C(=O)N[C@@H](C)C(=O)N[C@@H](CS)C(=O)N[C@@H](Cc2ccccc2)C(=O)N1)C(=O)N[C@@H](CCCCN)C(=O)N[C@@H](CCCCN)C(=O)N[C@@H](CCCNC(=N)N)C(=O)O [S3, His-Leu-S5-Ala-Cys-Phe-S5-Cys-Ala-Lys-Lys-Leu-Lys-Lys-Arg] (H-HL[S5]ACF[S5]CAKKLKKR-OH; staple 3-7; N-terminus and C-terminus assumed)	8.8	interacted with the TRB3 protein	100%	93.33%	86.67%	86.67%					
S19: chimeric polypeptide Pep2-MR2, amino acid sequence SEQ ID NO: 19 (HLYVSPWGGHLMACFTCAKKLKKR; chimeric polypeptide Pep2-MR2 S19)							8.675	100%	100%	90%	90%
S20: chimeric polypeptide TAT-MR2, amino acid sequence SEQ ID NO: 20 (YGRKKRRQRRRGGHLMACFTCAKKLKKR; chimeric polypeptide TAT-MR2 S20)							10.0625	100%	91.67%	75%	75%
S21: chimeric polypeptide Antp-MR2, amino acid sequence SEQ ID NO: 21 (RQIKIWFQNRRMKWKKGGHLMACFTCAKKLKKR; chimeric polypeptide Antp-MR2 S21)							11.2125	100%	100%	75%	75%
